Assay results as given in PMC5111430 (ACS chemical biology, 2016).

Tests used:
[1] = molecular target: recombinant human P301L tau (Homo sapiens, UniProt P10636, P618L); assay: Hydrogen peroxide production assay; assay type: biochemical; conditions: recombinant tau (10 µM) with 30 µM compound vs vehicle
human recombinant tau = human recombinant tau (Homo sapiens, UniProt P10636, P618L); assay: Nondenaturing gel electrophoresis of ThT samples, high molecular weight tau; assay type: biochemical; conditions: ThT samples incubated with 30 µM compound
[2] = molecular target: 4R0N human recombinant tau (Homo sapiens, UniProt P10636, P618L); assay: In vitro tau aggregation, thioflavin T fluorescence assay; assay type: biochemical; conditions: for effect on tau aggregation levels in vitro: ThT fluorescence, heparin-induced, 24 h
[3] = molecular target: Recombinant human Hsp70 and DnaJA2 (Homo sapiens, UniProt P0DMV8); assay: Hsp70 ATPase malachite green assay; assay type: biochemical; conditions: 1 µM Hsp70, 1 µM DnaJA2, 1 mM ATP, 30 min preincubation, 3 h
WT4R0N tau = assay type: cell-based, human; conditions: HEK293T, transient WT4R0N tau, 24 h; for effect on tau levels (tau aggregation inhibitor scaffolds): increasing concentrations; for effect on tau levels (Hsp70 inhibitor scaffolds): increasing concentrations up to 30 µM
HEK293T cells = assay: LDH cytotoxicity assay; assay type: cell-based, human; conditions: increasing concentrations, 24 h, relative to DMSO

4R0N human recombinant tau, sequence (P10636 1-383 isoform P10636-6 P243L): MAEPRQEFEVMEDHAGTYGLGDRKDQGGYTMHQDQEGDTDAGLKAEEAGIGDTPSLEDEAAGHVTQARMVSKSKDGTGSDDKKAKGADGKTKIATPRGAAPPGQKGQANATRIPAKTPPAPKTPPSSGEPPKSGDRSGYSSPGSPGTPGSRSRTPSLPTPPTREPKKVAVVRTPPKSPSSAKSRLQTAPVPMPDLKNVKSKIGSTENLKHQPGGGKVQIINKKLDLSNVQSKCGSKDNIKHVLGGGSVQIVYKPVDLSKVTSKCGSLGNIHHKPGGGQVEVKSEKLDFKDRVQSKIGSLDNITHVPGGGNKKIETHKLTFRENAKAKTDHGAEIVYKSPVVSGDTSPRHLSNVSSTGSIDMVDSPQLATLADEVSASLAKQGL
human recombinant tau, sequence (P10636 1-383 isoform P10636-6 P243L): as above
recombinant human P301L tau, sequence (P10636 1-383 isoform P10636-6 P243L): as above
Recombinant human Hsp70 and DnaJA2, sequence (P0DMV8 whole entry): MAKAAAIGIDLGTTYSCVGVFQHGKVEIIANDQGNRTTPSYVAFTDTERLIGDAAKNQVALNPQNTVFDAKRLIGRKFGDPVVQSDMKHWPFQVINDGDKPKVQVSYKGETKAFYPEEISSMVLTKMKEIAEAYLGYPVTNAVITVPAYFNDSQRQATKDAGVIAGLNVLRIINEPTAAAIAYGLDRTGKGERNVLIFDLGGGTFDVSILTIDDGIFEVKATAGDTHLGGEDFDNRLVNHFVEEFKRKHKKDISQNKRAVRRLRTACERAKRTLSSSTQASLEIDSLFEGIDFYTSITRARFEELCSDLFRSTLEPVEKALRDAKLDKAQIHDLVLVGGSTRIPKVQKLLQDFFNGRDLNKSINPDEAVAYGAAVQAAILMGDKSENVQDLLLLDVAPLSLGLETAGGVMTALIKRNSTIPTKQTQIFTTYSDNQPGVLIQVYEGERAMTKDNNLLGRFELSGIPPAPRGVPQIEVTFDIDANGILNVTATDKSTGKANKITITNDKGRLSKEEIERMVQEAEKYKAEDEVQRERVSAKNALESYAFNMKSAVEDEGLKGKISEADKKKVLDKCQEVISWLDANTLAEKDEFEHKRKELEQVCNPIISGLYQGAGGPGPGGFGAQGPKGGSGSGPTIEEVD

CCn1c(=O)/c(=C2\Sc3cc(Cl)ccc3N2C)s/c1=C\c1scc[n+]1Cc1ccccc1.[Cl-] [rhodacyanine, 3-benzyl-2-((Z)-((E)-5-(6-chloro-3-methylbenzo[d]thiazol-2(3H)-ylidene)-3-ethyl-4-oxothiazolidin-2-ylidene)methyl)thiazol-3-ium chloride]
production of hydrogen peroxide [1]: no significant differences | effect on high molecular weight tau (human recombinant tau): most potently reduced high molecular weight tau | IC50 [2]: 0.813 µM

2-((Z)-5-((5-(3- chlorophenyl)furan -2-yl)methylene)-4-oxo-2- thioxothiazolidin-3- yl)ethanoic acid [rhodanine]
Hsp70 ATPase activity [3]: inhibited Hsp70 ATPase activity

O=C1c2ccc(O)c(O)c2C(=O)c2c(O)ccc(O)c21 [anthraquinone, 1,2,5,8-Tetrahydroxy-9,10-anthraquinone, 1,2,5,8-Tetrahydroxyanthraquinone]
effect on tau levels at 30 µM (WT4R0N tau; 30 µM): effectively lowered tau levels | effect on tau levels (tau aggregation inhibitor scaffolds) (WT4R0N tau): lowered tau levels

CN(C)c1ccc2nc3ccc(N(C)C)cc3[s+]c2c1.[Cl-] [phenothiazine, 3,7-bis(Dimethylamino)phenazat hionium chloride]
effect on high molecular weight tau (human recombinant tau): most potently reduced high molecular weight tau

N#Cc1ccc(COC[C@H]2O[C@@H](n3c(NCc4ccc(Cl)c(Cl)c4)nc4c(N)ncnc43)[C@H](O)[C@@H]2O)cc1 [adenosine analog, 5'-O-[(4-Cyanophenyl)methyl]-8-[[(3,4-dichlorophenyl)methyl]amino]-adenosine]
effect on tau levels (Hsp70 inhibitor scaffolds) (WT4R0N tau): increased tau levels | effect on tau aggregation levels in vitro [2]: increased tau aggregation levels

CCCn1c(NC(=O)[C@H]2CCCN(c3cnccn3)C2)nc2ccccc21 [piperidine-3-carboxamide, (S)-N-(1-propyl-1H-benzimidazol-2-yl)-1-(2-pyrazinyl)piperidine-3-carboxamide]
effect on tau levels (Hsp70 inhibitor scaffolds) (WT4R0N tau): increased tau levels | effect on tau aggregation levels in vitro [2]: increased tau aggregation levels

2-Phenylethynesulfonamide
LDH cytotoxicity (HEK293T cells): high toxicity relative to the other compounds

Nc1scc2c(C(=O)NC3CC3)nn(-c3ccc(Cl)cc3)c(=O)c12 [ATPZ, 5-amino-3-(4-chlorophenyl)-N-cyclopropyl-4-oxo-3,4-dihydrothieno[3,4-d]pyridazine-1-carboxamide]
effect on tau levels (tau aggregation inhibitor scaffolds) (WT4R0N tau): did not lead to tau lowering

CC1=C(C(=O)OCc2ccccc2)C(c2ccc(-c3ccccc3)cc2)NC(=O)N1CCCCCC(=O)O (centres unmarked) [dihydropyrimidine, 4-[1,1'-Biphenyl]-4-yl-3,4-dihydro-6-methyl-2-oxo-5-[(phenylmethoxy)carbonyl]-1(2H)-pyrimidinehexanoic acid]
IC50 [2]: 22.7 µM
